Assay [1] has as its target cdk4/cyclin D1 (Homo sapiens, UniProt P11802). Kind of assay: Cyclin-dependent kinase assay, cdk4/cyclin D1. The assay is classed as biochemical. The note with it: cyclin D1/cdk4; GST-pRb substrate, 10 µM ATP.
Assay [2] relates to MDA-MB-435. In words: In vitro proliferation assay (MTT), MDA-MB-435. The note with it: Homo sapiens, MDA-MB-435, MTT assay; value (SD, n) where given; read-out: MB-435 Breast (IC50 µM). The assay is classed as cell-based, human. The essentials:
(§1)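 Tetrazolium (MTT) reduction measures live cells remaining after 3 days with test compound, following overnight attachment at 1000–2500 cells/well. Dye is taken up in DMSO and read at 570 nm.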

Assay [3] concerns PC-3. Kind of assay: In vitro proliferation assay (MTT), PC-3. The assay is classed as cell-based, human. The note with it: Homo sapiens, PC-3, MTT assay; value (SD, n) where given; read-out: PC-3 Prostate (IC50 µM). The essentials: as §1
Assay [4] addresses cdk1/cyclin B (Homo sapiens, UniProt P06493). In words: Cyclin-dependent kinase assay, cdk1/cyclin B. The conditions noted are these: CDK1 IC50, nM, Histone H1, 10 µM ATP.
The target of assay [5] is cdk2/cyclin E (Homo sapiens, UniProt P24941). In words: Cyclin-dependent kinase assay, cdk2/cyclin E. The conditions noted are these: CDK2 IC50, nM, GST-pRb substrate, 10 µM ATP.

The values below come from patent EP1377579B1 (Aventis Pharmaceuticals Inc., priority 2000, dated 2002).

Each structure is given as a SMILES string. Where a name gives a salt, the structure may show the parent alone.

For orientation: IC50 means the concentration that inhibits the measured activity by half.

cdk1/cyclin B, sequence (P06493 whole entry): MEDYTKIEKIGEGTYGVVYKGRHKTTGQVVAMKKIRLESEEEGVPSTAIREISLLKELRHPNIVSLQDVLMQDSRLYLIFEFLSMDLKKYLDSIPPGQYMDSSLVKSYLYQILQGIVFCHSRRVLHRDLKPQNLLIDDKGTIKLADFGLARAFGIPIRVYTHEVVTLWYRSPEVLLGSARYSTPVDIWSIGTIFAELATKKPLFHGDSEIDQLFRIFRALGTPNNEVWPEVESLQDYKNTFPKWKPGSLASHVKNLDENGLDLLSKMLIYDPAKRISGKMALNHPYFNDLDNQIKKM
cdk1/cyclin B, sequence (P14635 whole entry partner): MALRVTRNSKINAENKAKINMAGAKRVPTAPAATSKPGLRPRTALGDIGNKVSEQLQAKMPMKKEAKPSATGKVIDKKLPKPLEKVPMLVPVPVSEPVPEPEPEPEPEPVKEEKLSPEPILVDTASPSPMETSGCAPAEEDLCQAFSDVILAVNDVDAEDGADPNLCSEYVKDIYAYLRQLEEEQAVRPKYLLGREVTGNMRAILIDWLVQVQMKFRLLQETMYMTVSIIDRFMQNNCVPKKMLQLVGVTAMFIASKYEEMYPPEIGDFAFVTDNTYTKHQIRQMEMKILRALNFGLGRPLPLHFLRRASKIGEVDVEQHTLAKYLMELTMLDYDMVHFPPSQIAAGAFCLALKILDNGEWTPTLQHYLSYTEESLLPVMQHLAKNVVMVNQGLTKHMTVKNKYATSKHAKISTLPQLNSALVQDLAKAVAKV
cdk4/cyclin D1, sequence (P11802 whole entry): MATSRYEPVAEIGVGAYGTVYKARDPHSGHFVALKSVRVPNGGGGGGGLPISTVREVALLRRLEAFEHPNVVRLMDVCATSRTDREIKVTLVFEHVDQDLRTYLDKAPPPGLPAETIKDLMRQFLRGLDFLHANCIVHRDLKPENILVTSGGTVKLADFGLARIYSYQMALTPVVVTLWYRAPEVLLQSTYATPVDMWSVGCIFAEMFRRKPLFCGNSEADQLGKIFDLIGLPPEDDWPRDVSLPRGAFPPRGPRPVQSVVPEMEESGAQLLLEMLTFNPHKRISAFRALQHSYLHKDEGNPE
cdk4/cyclin D1, sequence (P24385 whole entry partner): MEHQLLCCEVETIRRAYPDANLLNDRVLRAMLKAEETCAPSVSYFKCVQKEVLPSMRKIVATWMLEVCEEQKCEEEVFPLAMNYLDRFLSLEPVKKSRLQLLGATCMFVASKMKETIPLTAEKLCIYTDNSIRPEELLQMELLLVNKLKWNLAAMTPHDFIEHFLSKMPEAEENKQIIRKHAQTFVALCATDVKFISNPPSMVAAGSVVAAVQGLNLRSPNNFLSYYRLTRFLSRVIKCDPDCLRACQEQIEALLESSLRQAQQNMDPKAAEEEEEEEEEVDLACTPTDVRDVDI

`N[C@H]1CC[C@H](Nc2nc(NC3CCN(S(=O)(=O)c4ccccc4[N+](=O)[O-])CC3)c3ncn(C4CCCC4)c3n2)CC1` [compound 143, trans-N^2-(4-Amino-cyclohexyl)-9-cyclopentyl-N^6-[1-(2-nitro-benzenesulfonyl)-piperidin-4-yl]-9H-purine-2,6-diamine dihydrochloride]: the IC50 in assay [1] was determined as 154 nM; in assay [2], 0.61 µM; in assay [3], 0.45 µM; in assay [4] it was 7.5 nM; in assay [5], 28 nM.

For `CC(C)n1cnc2c(NC3CCN(S(=O)(=O)c4ccc(C#N)cc4)CC3)nc(N[C@H]3CC[C@H](N)CC3)nc21` [compound 145, trans-4-{4-[2-(4-Amino-cyclohexylamino)-9-isopropyl-9H-purin-6-ylamino]-piperidine-1-sulfonyl} -benzonitrile dihydrochloride], the IC50 in assay [1] came out at 8800 nM; in assay [2] it was 4.12 µM; in assay [3], 6.32 µM; in assay [4], 21 nM; in assay [5] it was 70 nM.

For the compound `CCNC(=O)N1CCC(Nc2nc(N[C@H]3CC[C@H](N)CC3)nc3c2ncn3C2CCCC2)CC1` [compound 148, trans-4-[2-(4-Amino-cyclohexylamino)-9-cyclopentyl-9H-purin-6-ylamino]-piperidine-1-carboxylic acid ethylamide dihydrochloride], the IC50 in assay [1] was found to be 699 nM; in assay [2], 4.7 µM; in assay [3], 4.79 µM; in assay [4], 197 nM; in assay [5] it was 61 nM.

As to `COc1ccc(NC(=O)N2CCC(Nc3nc(N[C@H]4CC[C@H](N)CC4)nc4c3ncn4C3CCCC3)CC2)c(OC)c1` [compound 151, trans-4-[2-(4-Amino-cyclohexylamino)-9-cyclopentyl-9H-purin-6-ylamino]-piperidine-1-carboxylic acid (2,4-dimethoxy-phenyl)-amide dihydrochloride], the IC50 in assay [1] is 391 nM; in assay [2], 0.44 µM; in assay [3], 0.5 µM; in assay [4], 60 nM; in assay [5], 32 nM.

For `N[C@H]1CC[C@H](Nc2nc(NC3CCN(C(=O)Nc4cccc(F)c4)CC3)c3ncn(C4CCCC4)c3n2)CC1` [compound 152, trans-4-[2-(4-Amino-cyclohexylamino)-9-cyclopentyl-9H-purin-6-ylamino]-piperidine-1-carboxylic acid (3-fluoro-phenyl)-amide dihydrochloride], the IC50 is 753 nM in assay [1]; 0.3 µM in assay [2]; 0.38 µM in assay [3]; 17 nM in assay [4]; 42 nM in assay [5].

For `COc1ccc(NC(=O)N2CCC(Nc3nc(N[C@H]4CC[C@H](N)CC4)nc4c3ncn4C3CCCC3)CC2)cc1` [compound 153, trans-4-[2-(4-Amino-cyclohexylamino)-9-cyclopentyl-9H-purin-6-ylamino]-piperidine-1-carboxylic acid (4-methoxy-phenyl)-amide dihydrochloride], the IC50 was determined as 444 nM in assay [1]; 0.38 µM in assay [2]; 0.45 µM in assay [3]; 20 nM in assay [4]; 30 nM in assay [5].

Regarding `COc1cccc(NC(=O)N2CCC(Nc3nc(N[C@H]4CC[C@H](N)CC4)nc4c3ncn4C3CCCC3)CC2)c1` [compound 155, trans-4-[2-(4-Amino-cyclohexylamino)-9-cyclopentyl-9H-purin-6-ylamino]-piperidine-1-carboxylic acid (3-methoxy-phenyl)-amide dihydrochloride], the concentration for half-maximal inhibition (IC50) is 482 nM in assay [1]; 0.33 µM in assay [2]; 0.44 µM in assay [3]; 20 nM in assay [4]; 43 nM in assay [5].

In the case of `CC(C)NC(=O)N1CCC(Nc2nc(N[C@H]3CC[C@H](N)CC3)nc3c2ncn3C2CCCC2)CC1` [compound 157, trans-4-[2-(4-Amino-cyclohexylamino)-9-cyclopentyl-9H-purin-6-ylamino]-piperidine-1-carboxylic acid isopropylamide dihydrochloride], the IC50 in assay [1] is 2040 nM; in assay [2], 2.54 µM; in assay [3] it was 3.34 µM; in assay [4], 310 nM; in assay [5], 32 nM.

With `N[C@H]1CC[C@H](Nc2nc(NC3CCN(C(=O)Nc4ccccc4C(F)(F)F)CC3)c3ncn(C4CCCC4)c3n2)CC1` [compound 158, trans-4-[2-(4-Amino-cyclohexylamino)-9-cyclopentyl-9H-purin-6-ylamino]-piperidine-1-carboxylic acid (2-trifluoromethyl-phenyl)-amide dihydrochloride], the IC50 in assay [1] was determined as 825 nM; in assay [2], 0.29 µM; in assay [3], 0.38 µM; in assay [4], 82 nM; in assay [5], 87 nM.

Regarding `C[C@@H](NC(=O)N1CCC(Nc2nc(N[C@H]3CC[C@H](N)CC3)nc3c2ncn3C2CCCC2)CC1)c1ccccc1` [compound 160, trans-4-[2-(4-Amino-cyclohexylamino)-9-cyclopentyl-9H-purin-6-ylamino]-piperidine-1-carboxylic acid ((R)-1-phenyl-ethyl)-amide dihydrochloride], the IC50 in assay [1] came to 357 nM; in assay [2], 1.36 µM; in assay [3], 1.69 µM; in assay [4], 85 nM; in assay [5], 94 nM.

For the compound `C[C@H](NC(=O)N1CCC(Nc2nc(N[C@H]3CC[C@H](N)CC3)nc3c2ncn3C2CCCC2)CC1)c1ccccc1` [compound 161, trans-4-[2-(4-Amino-cyclohexylamino)-9-cyclopentyl-9H-purin-6-ylamino]-piperidine-1-carboxylic acid ((S)-1-phenyl-ethyl)-amide dihydrochloride], the IC50 in assay [1] came to 601 nM; in assay [2] it was 1.01 µM; in assay [3], 0.96 µM; in assay [4], 56 nM; in assay [5] it was 78 nM.

As for `C=CCNC(=O)N1CCC(Nc2nc(N[C@H]3CC[C@H](N)CC3)nc3c2ncn3C2CCCC2)CC1` [compound 164, trans-4-[2-(4-Amino-cyclohexylamino)-9-cyclopentyl-9H-purin-6-ylamino]-piperidine-1-carboxylic acid allylamide dihydrochloride], the IC50 in assay [1] is 739 nM; in assay [2], 5.03 µM; in assay [3] it was 4.99 µM; in assay [4], 151 nM; in assay [5] it was 86 nM.

`N[C@H]1CC[C@H](Nc2nc(NC3CCN(C(=O)Nc4ccc(Cl)cc4Cl)CC3)c3ncn(C4CCCC4)c3n2)CC1` [compound 167, trans-4-[2-(4-Amino-cyclohexylamino)-9-cyclopentyl-9H-purin-6-ylamino]-piperidine-1-carboxylic acid (2,4-dichloro-phenyl)-amide dihydrochloride]: the IC50 in assay [1] is 63 nM; in assay [2], 0.28 µM; in assay [3], 0.38 µM; in assay [4] it was 4 nM; in assay [5], 54 nM.

Consider `N[C@H]1CC[C@H](Nc2nc(NC3CCN(C(=O)NC(=O)c4ccccc4)CC3)c3ncn(C4CCCC4)c3n2)CC1` [compound 172, trans-N-(1-{4-[2-(4-Amino-cyclohexylamino)-9-cyclopentyl-9H-purin-6-ylamino]-piperidin-1-yl}-methanoyl)-benzamide dihydrochloride], for which the IC50 in assay [1] stood at 829 nM; in assay [2], 1.16 µM; in assay [3], 1.04 µM; in assay [4] it was 23 nM; in assay [5] it was 62 nM.

Turning to `CCOC(=O)NC(=O)N1CCC(Nc2nc(N[C@H]3CC[C@H](N)CC3)nc3c2ncn3C2CCCC2)CC1` [compound 173, trans-(1-{4-[2-(4-Amino-cyclohexylamino)-9-cyclopentyl-9H-purin-6-ylamino]-piperidin-1-yl}-methanoyl)-carbamic acid ethyl ester dihydrochloride], the IC50 in assay [1] is 424 nM; in assay [2], 2.67 µM; in assay [3] it was 2.81 µM; in assay [4], 18 nM; in assay [5] it was 30 nM.

With `N[C@H]1CC[C@H](Nc2nc(NC3CCN(C(=O)Nc4ccccc4OC(F)(F)F)CC3)c3ncn(C4CCCC4)c3n2)CC1` [compound 174, trans-4-[2-(4-Amino-cyclohexylamino)-9-cyclopentyl-9H-purin-6-ylamino]-piperidine-1-carboxylic acid (2-trifluoromethoxy-phenyl)-amide dihydrochloride], the IC50 in assay [1] was 795 nM; in assay [2], 0.31 µM; in assay [3], 0.27 µM; in assay [4], 48 nM; in assay [5], 89 nM.

As for `N[C@H]1CC[C@H](Nc2nc(NC3CCN(C(=O)Nc4cc(C(F)(F)F)cc(C(F)(F)F)c4)CC3)c3ncn(C4CCCC4)c3n2)CC1` [compound 176, trans-4-[2-(4-Amino-cyclohexylamino)-9-cyclopentyl-9H-purin-6-ylamino]-piperidine-1-carboxylic acid (3,5-bis-trifluoromethyl-phenyl)-amide dihydrochloride], the IC50 in assay [1] amounted to 898 nM; in assay [2] it was 0.51 µM; in assay [3], 0.54 µM; in assay [4] it was 7 nM; in assay [5], 378 nM.
